# Test results reported in paper PMC11262537, “Cell-Penetrating Chaperone Nuc1 for Small- and Large-Molecule Delivery Into Retinal Cells and Tissues” (Investigative Ophthalmology & Visual Science, 2024).
# “Also recorded” adds a separate entry of the source. Residues, ends and D or L forms follow the SMILES beside them. No end group written: not given here. *: point of attachment. 6FAM = O=C1OC2(c3ccc(O)cc3Oc3cc(O)ccc32)c2cc(C(=O)*)ccc21
# Key:
# [1] = tested on: murine retinal tissue explants; assay: Retinal explant culture uptake with or without imipramine (macropinocytosis); format: cell-based, C57BL6/J mice; settings: 37°C, confocal imaging, n = 3–4 explants per group; for uptake into retinal explants in presence of imipramine: 1 µg/mL in DMEM/F12 + 5 µM imipramine, 4 hours; for uptake into retinal explants: 1 µg/mL in DMEM/F12, 4 hours, 5% CO2, absence of imipramine
# Procedure: After careful removal, the eyeballs from C57BL6/J mice were transferred to a Petri dish containing fresh cold Dulbecco's modified Eagle's medium (DMEM). Under a dissecting microscope, the cornea, ocular muscles, and lens were removed and flat mounts prepared via making four incisions from the margin of the eye cup toward the optic nerve. Flat mounts were transferred into six-well plates containing fresh DMEM/F12 mixed with 5′ 6-FAM-Nuc1 or 5′ 6-FAM-SC (1 µg/mL) in presence or absence of 5 µM imipramine (Sigma). After 4 hours of culturing in a cell culture incubator (37°C, 5% CO2), retinas were washed twice with PBS and fixed with 4% PFA for 15 minutes. Thereafter, the tissue sections were soaked in 15% to 30% sucrose at 4°C overnight. Retinal explants were frozen into Tissue-Tek cryomolds (Torrence, CA, USA) and the 14-µm sections were imaged under a Leica (Teaneck, NJ, USA) TCS-SPE confocal microscope.
# Macropinocytosis is a specialized pathway of endocytosis characterized by the nonspecific internalization of extracellular fluids, solutes, and membrane in large endocytic vesicles known as macropinosomes. Macropinocytosis plays a role in a variety of physiological processes, including nutrient sensing, recycling of plasma proteins, and signaling.[42]^,[43] Molecules that bind HSPGs can stimulate bulk cellular uptake via macropinocytosis.[19] […] In order to test the hypothesis that Nuc1 can be taken up by cells via macropinocytosis, murine retinal tissue explants were incubated in 5′ 6-FAM-Nuc1 (1 µg/mL) in the presence or absence of 5 µM imipramine. After 4 hours, explants were processed for cryosectioning as above. We found robust uptake of 5′ 6-FAM-Nuc1 within 4 hours of incubation (Fig. 7). […] We conclude that Nuc1 peptide penetrates retinal cells in part by the process of macropinocytosis.
# [2] = tested on: retinal tissues and cells; assay: Retinal penetration of FAM-labeled peptide after intravitreal injection, fluorescence microscopy of cryosections; format: in vivo, C57BL/6J mice; settings: for localization in retinal layers: 1 µg in 1 µL H2O intravitreal, 4 hours postinjection, fluorescence microscopy of cryosections, n = 4 to 5 animals per group
# Procedure: Retinal cryosections (14 µm) were rehydrated in phosphate-buffered saline (PBS) for 15 minutes, permeabilized, and blocked with 6% normal goat serum in PBS containing 0.1% Triton-X-100 (or using mouse-on-mouse kit as appropriate) for 45 minutes and incubated overnight in a saturated chamber with the primary antibodies against anti-glutamine synthetase (Müller cells), anti–β-III-tubulin (ganglion cells), anti-rhodopsin (rod cells), anti–S-opsin (cone cells), and anti-PKCα (bipolar cells). Subsequently, sections were washed and incubated with respective secondary antibodies labeled with Alexa Fluor 594 or 488 (Molecular Probes, Eugene, OR, USA) or Cy3 (Jackson Immunoresearch, Westgrove, PA, USA). Slides were mounted in antifade medium containing DAPI (Vectashield-DAPI; Vector Laboratories, Burlingame, CA, USA) to counterstain nuclei, and images were captured with a Leica TCS SPE microscope (Leica Microsystems, Wetzlar, Germany).
# (§1) In order to determine whether Nuc1 peptide was toxic to the murine retina, we injected various amounts (0.5–4.0 µg) 5′ 6-FAM–labeled Nuc1 into the vitreous of 6-week-old C57BL/6J mice and processed the retinas as described below. We determined that 1 µg Nuc1 was not toxic to the retina, whereas 4.0 µg Nuc1 generated some toxicity (data not shown). Based on these observations, we selected 1 µg as an optimal working dose. We then injected 1 µg 5′ 6-FAM–labeled Nuc1 suspended in 1 µL H2O or 1 µg 5′ 6-FAM-SC (a scrambled peptide) into the vitreous of 6-week-old C57BL/6J mice. Four hours postinjection, eyes were enucleated, fixed, and cryosectioned and the retina was imaged by fluorescence microscopy. […] We conclude that Nuc1 peptide penetrates the retina and labels a variety of retinal cells following intravitreal injection.
# murine retina = assay: Retinal toxicity of Nuc1 after intravitreal injection; format: in vivo, C57BL/6J mice; settings: for toxicity to the retina: 6-week-old C57BL/6J mice, data not shown
# Procedure: as §1
# Furthermore, while sequences used in the design of Nuc1 were selected based on prior studies of nucleolin and heparan-sulfate proteoglycan-binding sequences, detailed analysis of mechanism(s) of uptake is ongoing in our laboratory. Such studies face the challenge of limitations associated with retinal cell culture with a bona fide extracellular matrix.
Compound,uptake into retinal explants in presence of imipramine [1],uptake into retinal explants [1],localization in retinal layers [2],"retinal cell types targeted ([2]; 1 µg intravitreal, 4 hours, costaining for tubulin, PKC, rod opsin, glutamine synthase)",toxicity to the retina (murine retina; 1 µg 5′ 6-FAM-labeled Nuc1 intravitreal),toxicity to the retina (murine retina; 4.0 µg 5′ 6-FAM-labeled Nuc1 intravitreal),obvious toxicity associated with Nuc1 (murine retina; short-term (4 hours) or longer-term (2 weeks) proof-of-concept studies)
CC[C@H](C)[C@H](NC(=O)[C@H](CO)NC(=O)[C@H](C)NC(=O)c1ccc2c(c1)C1(OC2=O)c2ccc(O)cc2Oc2cc(O)ccc21)C(=O)N[C@@H](CCCCN)C(=O)N[C@H](C(=O)N[C@@H](C)C(=O)N[C@H](C(=O)N[C@@H](CO)C(=O)N[C@@H](C)C(=O)NCC(=O)NCC(=O)N[C@@H](CC(=O)O)C(=O)N[C@@H](CCCCN)C(=O)N1CCC[C@H]1C(=O)N[C@@H](CCCNC(=N)N)C(=O)N[C@@H](CCCNC(=N)N)C(=O)O)C(C)C)C(C)C [5′ 6-FAM-Nuc1] (6FAM-ASIKVAVSAGGDKPRR-OH),significantly reduced uptake,robust uptake,abundantly localized to all layers of the retina; also recorded: localizes to all layers of the retina,"ganglion cells, bipolar cells, photoreceptors, and Müller cells",,,
"CC[C@H](C)[C@H](NC(=O)[C@H](CO)NC(=O)[C@H](C)NC(=O)[C@H](CCCNC(=N)N)NC(=O)c1ccc2c(c1)C1(OC2=O)c2ccc(O)cc2Oc2cc(O)ccc21)C(=O)N[C@@H](C)C(=O)N[C@@H](CCCCN)C(=O)N[C@@H](C)C(=O)N[C@@H](CCCNC(=N)N)C(=O)N[C@@H](CC(=O)O)C(=O)N[C@H](C(=O)N[C@@H](CCCCN)C(=O)NCC(=O)N[C@H](C(=O)N1CCC[C@H]1C(=O)NCC(=O)N[C@@H](CO)C(=O)O)C(C)C)C(C)C [5′ 6-FAM-SC, reference compound] (6FAM-RASIAKARDVKGVPGS-OH)",marginal reduction in uptake,did not show any significant uptake,accumulated primarily at the inner limiting membrane and was very weakly visible in the retina; also recorded: does not significantly penetrate the retina,,,,
ASIKVAVSAGGDKPRR [Nuc1],,,,,not toxic,some toxicity,did not observe any obvious toxicity
